Test [1] can be described thus: StAR promoter reporter inhibition counter-screen, dose response, counter-screen for LRH-1 inverse agonist project, cell-based, luminescence, luciferase reporter (AID 651969). Format: functional.
Test [2] has as its target Nuclear receptor subfamily 5 group A member 2 (Homo sapiens, UniProt O00482). Format: functional, cell-based.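 Also: HEK293T cells transfected with LRH-1 and a StAR promoter luciferase reporter; potency for inhibitors that lower LRH-1 driven reporter light.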
A further test has as its target Steroidogenic factor 1 (Homo sapiens, UniProt Q13285). Description: Counterscreen for inverse agonists of the liver receptor homolog-1 (LRH-1; NR5A2): Luminescence-based cell-based high throughput dose response assay to identify inverse agonists of the Steroidogenic Factor 1 Nuclear Receptor (SF1; NR5A1). Format: functional. In general terms: Counterscreens check selectivity or assay interference.

The target of test [3] is T1, High affinity choline transporter 1 (Homo sapiens, UniProt Q9GZV3).
T1 sequence (Q9GZV3 whole entry): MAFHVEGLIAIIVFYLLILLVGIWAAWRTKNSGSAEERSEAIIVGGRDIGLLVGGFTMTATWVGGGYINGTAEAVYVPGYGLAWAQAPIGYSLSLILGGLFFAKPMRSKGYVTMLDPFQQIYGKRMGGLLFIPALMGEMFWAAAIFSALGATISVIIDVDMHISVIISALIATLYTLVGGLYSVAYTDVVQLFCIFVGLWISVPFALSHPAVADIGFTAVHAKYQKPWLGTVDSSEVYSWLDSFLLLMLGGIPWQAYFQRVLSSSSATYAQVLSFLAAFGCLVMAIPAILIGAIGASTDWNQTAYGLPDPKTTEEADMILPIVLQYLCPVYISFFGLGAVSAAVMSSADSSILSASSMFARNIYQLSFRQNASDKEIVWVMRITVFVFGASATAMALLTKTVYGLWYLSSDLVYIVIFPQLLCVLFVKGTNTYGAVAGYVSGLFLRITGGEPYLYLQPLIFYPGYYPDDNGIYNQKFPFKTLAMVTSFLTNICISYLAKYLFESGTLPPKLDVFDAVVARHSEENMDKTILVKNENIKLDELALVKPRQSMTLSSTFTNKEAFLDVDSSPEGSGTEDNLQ
Briefly: CHT inhibitors, dose response, cell-based, 5-point CRC, membrane potential dye (AID 504840). The test is classed as functional.

The target in test [4] is T2, Type-1 angiotensin II receptor (Homo sapiens, UniProt P30556).
T2 sequence (P30556 whole entry): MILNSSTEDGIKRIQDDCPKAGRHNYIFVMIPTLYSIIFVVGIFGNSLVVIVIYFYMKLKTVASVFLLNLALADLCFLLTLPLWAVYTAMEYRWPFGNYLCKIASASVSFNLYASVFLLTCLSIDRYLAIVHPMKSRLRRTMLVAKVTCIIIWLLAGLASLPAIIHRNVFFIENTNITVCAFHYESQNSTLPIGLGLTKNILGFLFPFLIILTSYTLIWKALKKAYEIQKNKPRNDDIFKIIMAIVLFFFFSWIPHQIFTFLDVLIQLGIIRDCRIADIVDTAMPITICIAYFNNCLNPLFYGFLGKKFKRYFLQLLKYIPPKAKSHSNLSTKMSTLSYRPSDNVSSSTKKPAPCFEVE
Briefly: AT1 receptor antagonists, dose response, selectivity assay for APJ receptor antagonist project, cell-based, uHTS hits (AID 463214).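 Also: antagonist potency against angiotensin II stimulated AT1 response.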 Format: functional.

In the next test the target is Beta-galactosidase (Escherichia coli, UniProt Q8VNN2). Description: PubChem AID 485352. The test is classed as functional.
Chain of Beta-galactosidase (Q8VNN2 whole entry): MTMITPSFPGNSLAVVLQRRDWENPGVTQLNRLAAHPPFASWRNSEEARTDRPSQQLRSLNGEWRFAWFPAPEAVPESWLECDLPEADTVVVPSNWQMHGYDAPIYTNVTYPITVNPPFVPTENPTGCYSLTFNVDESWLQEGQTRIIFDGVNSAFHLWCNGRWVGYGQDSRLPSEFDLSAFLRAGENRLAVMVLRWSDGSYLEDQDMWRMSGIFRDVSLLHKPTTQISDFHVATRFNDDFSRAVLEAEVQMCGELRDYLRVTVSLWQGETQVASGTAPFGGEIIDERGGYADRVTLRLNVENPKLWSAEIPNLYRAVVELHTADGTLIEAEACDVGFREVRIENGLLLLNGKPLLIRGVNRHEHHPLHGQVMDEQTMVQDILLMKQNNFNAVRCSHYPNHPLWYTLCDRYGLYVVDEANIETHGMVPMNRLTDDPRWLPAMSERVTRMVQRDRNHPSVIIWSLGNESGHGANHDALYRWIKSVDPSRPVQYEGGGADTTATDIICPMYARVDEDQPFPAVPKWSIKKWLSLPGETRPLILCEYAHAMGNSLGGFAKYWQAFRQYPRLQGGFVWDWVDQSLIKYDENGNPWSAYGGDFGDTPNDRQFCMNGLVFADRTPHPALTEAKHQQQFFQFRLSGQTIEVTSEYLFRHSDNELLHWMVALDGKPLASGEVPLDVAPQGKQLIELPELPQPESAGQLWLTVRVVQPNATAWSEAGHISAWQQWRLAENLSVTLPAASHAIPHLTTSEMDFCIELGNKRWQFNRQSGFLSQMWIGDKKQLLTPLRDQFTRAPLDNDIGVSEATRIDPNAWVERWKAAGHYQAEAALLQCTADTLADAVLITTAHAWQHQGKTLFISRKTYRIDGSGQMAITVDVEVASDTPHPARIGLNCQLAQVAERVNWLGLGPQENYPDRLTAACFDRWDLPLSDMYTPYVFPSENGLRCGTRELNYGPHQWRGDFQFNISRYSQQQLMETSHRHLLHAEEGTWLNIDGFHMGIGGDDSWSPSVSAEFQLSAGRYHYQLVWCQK
The target in test [5] is Delta-type opioid receptor (Homo sapiens, UniProt P41143). Briefly: Counterscreen for agonists of heterodimerization of the mu 1 (OPRM1) and delta 1 (OPRD1) opioid receptors: Luminescence-based cell-based high throughput dose response assay to identify agonists of OPRD1 homodimerization. [Related pubchem assays (depositor defined):AID504326, AID504355, AID504692, AID504904, AID504905]. Format: functional.
Chain of Delta-type opioid receptor (P41143 whole entry): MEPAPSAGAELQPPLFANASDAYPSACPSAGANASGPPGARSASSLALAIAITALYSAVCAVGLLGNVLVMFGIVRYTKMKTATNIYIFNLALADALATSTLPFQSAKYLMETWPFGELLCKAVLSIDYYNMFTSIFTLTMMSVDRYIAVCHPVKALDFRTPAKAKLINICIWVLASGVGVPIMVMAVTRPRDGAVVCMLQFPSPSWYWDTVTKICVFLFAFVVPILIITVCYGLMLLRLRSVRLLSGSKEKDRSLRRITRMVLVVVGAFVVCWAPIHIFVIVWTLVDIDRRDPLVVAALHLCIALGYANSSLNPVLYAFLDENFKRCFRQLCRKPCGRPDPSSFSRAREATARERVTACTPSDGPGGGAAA

The target in test [6] is 5-hydroxytryptamine receptor 5A (Homo sapiens, UniProt P47898). Briefly: Counterscreen for agonists of OPRM1-OPRD1 heterodimerization: luminescence-based cell-based high throughput dose response assay to identify agonists of 5-hydroxytryptamine (serotonin) 5A receptor (HTR5A). [Related pubchem assays (depositor defined):AID504326, AID504355, AID504692, AID504904, AID504905]. Format: functional.
Chain of 5-hydroxytryptamine receptor 5A (P47898 whole entry): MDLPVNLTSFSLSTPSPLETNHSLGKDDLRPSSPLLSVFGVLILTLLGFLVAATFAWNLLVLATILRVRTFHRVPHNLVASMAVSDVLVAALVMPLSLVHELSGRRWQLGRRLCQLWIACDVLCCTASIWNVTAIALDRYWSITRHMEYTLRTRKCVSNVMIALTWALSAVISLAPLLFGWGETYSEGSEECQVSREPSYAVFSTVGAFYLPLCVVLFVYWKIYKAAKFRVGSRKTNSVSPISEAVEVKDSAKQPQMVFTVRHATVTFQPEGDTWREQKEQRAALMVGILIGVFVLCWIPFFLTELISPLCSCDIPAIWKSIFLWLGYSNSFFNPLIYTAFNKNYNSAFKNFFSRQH

The target in a further test is Mu-type opioid receptor (Homo sapiens, UniProt P35372). Briefly: Counterscreen for agonists of heterodimerization of the mu 1 (OPRM1) and delta 1 (OPRD1) opioid receptors: Luminescence-based cell-based high throughput dose response assay to identify agonists of OPRM1 homodimerization. The test is classed as functional.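 Also: U2OS cells expressing OPRM1 and beta-arrestin as split beta-galactosidase partners.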
Chain of Mu-type opioid receptor (P35372 whole entry): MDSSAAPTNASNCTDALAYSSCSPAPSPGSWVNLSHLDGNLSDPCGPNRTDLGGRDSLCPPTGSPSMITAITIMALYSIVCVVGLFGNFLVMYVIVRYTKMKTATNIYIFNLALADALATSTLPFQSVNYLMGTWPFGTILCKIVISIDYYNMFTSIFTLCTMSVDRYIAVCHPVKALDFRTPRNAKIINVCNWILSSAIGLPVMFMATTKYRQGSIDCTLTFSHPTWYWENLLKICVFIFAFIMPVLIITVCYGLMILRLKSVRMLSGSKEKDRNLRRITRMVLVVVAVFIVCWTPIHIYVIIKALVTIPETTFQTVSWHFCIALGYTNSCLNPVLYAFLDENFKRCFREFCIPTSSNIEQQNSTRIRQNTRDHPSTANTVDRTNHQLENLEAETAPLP
For test [7], the target named is T3, Short transient receptor potential channel 4 (Mus musculus, UniProt Q9QUQ5).
T3 sequence (Q9QUQ5 whole entry): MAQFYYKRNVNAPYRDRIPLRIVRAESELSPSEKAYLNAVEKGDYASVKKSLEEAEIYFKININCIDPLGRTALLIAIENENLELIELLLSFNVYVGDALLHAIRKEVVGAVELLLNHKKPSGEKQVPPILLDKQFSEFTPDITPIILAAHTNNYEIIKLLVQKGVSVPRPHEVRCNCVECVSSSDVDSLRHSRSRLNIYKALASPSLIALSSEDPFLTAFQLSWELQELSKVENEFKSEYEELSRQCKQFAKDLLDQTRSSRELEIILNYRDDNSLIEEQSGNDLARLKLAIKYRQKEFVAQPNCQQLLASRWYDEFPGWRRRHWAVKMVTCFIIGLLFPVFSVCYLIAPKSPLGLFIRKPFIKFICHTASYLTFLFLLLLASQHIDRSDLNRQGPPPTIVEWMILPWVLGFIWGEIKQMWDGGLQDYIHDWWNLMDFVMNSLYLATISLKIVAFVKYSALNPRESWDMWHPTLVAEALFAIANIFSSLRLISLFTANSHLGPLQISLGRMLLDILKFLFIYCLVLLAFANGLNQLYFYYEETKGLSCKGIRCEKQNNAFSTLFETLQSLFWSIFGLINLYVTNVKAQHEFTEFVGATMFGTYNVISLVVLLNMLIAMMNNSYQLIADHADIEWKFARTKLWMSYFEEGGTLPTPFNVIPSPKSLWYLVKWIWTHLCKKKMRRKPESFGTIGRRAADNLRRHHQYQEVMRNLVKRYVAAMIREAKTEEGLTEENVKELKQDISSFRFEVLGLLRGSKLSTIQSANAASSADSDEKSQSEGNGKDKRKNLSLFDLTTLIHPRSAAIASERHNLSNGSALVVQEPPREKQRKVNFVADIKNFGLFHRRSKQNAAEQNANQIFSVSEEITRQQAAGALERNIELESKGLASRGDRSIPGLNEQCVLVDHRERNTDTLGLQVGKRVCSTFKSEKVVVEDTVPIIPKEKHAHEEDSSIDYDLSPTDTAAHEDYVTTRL
Description: mouse TRPC4 channel activators, dose response, cell-based, HEK293 TRPC4/mu-opioid, Fluo-4 calcium (AID 434937). The test is classed as functional.

Test [8] is described as follows: microbe, parasite or virus in culture. Format: functional. As to conditions: Mycobacterium tuberculosis.
For test [9], the target named is T4, Ubiquitin-conjugating enzyme E2 N (Homo sapiens, UniProt P61088).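 Also: Dose-response confirmation in a TR-FRET assay detecting UBC13-driven polyubiquitin chain formation, inhibition measured.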
T4 sequence (P61088 whole entry): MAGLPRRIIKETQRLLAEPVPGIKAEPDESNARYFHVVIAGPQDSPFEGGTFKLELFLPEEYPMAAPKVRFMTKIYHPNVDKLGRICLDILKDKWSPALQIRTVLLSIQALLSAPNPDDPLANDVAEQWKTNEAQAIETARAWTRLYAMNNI
The test is classed as functional.

In a further test the target is Nonstructural protein 1 (Influenza A virus, UniProt Q194T2). The test is classed as functional, Influenza A virus (A/California/07/2009(H1N1)).
Chain of Nonstructural protein 1 (Q194T2 whole entry): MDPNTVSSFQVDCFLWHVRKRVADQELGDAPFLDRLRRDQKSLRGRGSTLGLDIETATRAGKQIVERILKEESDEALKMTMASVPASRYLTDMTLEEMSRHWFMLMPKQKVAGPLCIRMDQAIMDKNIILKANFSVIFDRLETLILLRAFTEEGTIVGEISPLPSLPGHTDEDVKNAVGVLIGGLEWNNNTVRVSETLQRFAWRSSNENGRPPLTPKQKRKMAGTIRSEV
Test [10] deals with T5, Endoribonuclease toxin MazF (Escherichia coli K-12, UniProt P0AE70).
T5 sequence (P0AE70 whole entry): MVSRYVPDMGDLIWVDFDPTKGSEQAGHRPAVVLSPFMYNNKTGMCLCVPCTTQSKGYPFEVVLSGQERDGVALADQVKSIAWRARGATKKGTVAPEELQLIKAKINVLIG
Briefly: MazF toxin RNase activators, dose response, biochemical, fluorescence, single-stranded RNA substrate, uHTS hits (AID 588481). The test is classed as functional.

Test [11] in a line: cytotoxicity toward NIH3T3 fibroblasts, dose response, counter-screen, cell-based, ATP luminescence, mouse fibroblasts (AID 2010).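 Also: cells exposed to compound for about 90 hours before reading.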 Format: functional.
Test [12] can be described thus: inhibitors of intracellular T. cruzi replication, confirmation, NIH3T3 host cells, beta-gal luminescence (AID 2044).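 Also: intracellular parasites grown in NIH/3T3 mouse fibroblasts as host cells; luminescent beta-galactosidase reporter signal from transgenic T. cruzi replicating inside host cells; inhibitors lower the luminescence signal.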 The test is classed as functional, cell-based.
Another test has as its target Large T antigen (Simian virus 40, UniProt P03070). The test is classed as functional, Betapolyomavirus macacae.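 Also: Confirmatory-stage PubChem screen for compounds that inhibit SV40 T antigen.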
For test [13], the target named is T6, Corticotropin-releasing factor receptor 2/Corticotropin-releasing factor-binding protein (Homo sapiens, UniProt P24387+Q13324).
T6 sequence (Q13324 whole entry): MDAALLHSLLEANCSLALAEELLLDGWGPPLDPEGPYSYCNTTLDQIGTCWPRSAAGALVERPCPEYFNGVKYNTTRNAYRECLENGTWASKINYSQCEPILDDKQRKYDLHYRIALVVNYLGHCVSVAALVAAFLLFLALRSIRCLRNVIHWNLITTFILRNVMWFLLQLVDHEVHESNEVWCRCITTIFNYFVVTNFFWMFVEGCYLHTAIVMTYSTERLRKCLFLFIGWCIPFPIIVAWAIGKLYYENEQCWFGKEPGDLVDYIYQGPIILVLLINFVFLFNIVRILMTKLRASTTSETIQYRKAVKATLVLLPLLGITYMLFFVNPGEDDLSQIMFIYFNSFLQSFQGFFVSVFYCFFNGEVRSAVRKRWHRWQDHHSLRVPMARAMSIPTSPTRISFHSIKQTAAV
T6 sequence (P24387 whole entry): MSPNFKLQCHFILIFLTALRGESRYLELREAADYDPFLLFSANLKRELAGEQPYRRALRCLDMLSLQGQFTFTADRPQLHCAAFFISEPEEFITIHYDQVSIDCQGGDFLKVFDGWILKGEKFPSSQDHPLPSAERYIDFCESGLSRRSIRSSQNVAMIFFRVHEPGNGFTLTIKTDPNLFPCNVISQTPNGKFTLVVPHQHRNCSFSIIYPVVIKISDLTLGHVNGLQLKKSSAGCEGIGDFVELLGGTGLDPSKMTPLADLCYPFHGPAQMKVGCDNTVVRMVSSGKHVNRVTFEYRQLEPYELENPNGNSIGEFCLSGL
Description: Dose Response confirmation of uHTS hits for small molecule antagonists of the CRF-binding protein and CRF-R2 receptor complex. Format: functional. As to conditions: read-out: IC50_Mean.

The target in test [14] is T6, Corticotropin-releasing factor receptor 2/Corticotropin-releasing factor-binding protein. Briefly: activators of CRF receptor 2 with binding protein – uHTS hits, confirmation (AID 602473). The test is classed as functional. As to conditions: read-out: EC50_Mean.

Active and inactive are the calls of the source. Where only a bound is given, the exact number is not on record here.

Chain of Steroidogenic factor 1 (Q13285 whole entry): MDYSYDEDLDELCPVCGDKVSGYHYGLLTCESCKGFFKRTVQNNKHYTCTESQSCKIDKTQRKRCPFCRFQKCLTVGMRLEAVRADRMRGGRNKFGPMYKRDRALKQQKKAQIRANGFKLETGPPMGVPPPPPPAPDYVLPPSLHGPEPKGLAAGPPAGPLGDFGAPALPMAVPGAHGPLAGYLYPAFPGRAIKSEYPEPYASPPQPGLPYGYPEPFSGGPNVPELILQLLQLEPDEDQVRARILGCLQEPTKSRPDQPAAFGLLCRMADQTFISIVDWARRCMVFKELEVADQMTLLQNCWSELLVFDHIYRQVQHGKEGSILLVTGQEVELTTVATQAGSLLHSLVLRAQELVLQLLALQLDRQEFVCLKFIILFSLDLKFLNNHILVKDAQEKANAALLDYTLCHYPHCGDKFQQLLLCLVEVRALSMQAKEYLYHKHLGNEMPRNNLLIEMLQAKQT
Chain of Nuclear receptor subfamily 5 group A member 2 (O00482 whole entry): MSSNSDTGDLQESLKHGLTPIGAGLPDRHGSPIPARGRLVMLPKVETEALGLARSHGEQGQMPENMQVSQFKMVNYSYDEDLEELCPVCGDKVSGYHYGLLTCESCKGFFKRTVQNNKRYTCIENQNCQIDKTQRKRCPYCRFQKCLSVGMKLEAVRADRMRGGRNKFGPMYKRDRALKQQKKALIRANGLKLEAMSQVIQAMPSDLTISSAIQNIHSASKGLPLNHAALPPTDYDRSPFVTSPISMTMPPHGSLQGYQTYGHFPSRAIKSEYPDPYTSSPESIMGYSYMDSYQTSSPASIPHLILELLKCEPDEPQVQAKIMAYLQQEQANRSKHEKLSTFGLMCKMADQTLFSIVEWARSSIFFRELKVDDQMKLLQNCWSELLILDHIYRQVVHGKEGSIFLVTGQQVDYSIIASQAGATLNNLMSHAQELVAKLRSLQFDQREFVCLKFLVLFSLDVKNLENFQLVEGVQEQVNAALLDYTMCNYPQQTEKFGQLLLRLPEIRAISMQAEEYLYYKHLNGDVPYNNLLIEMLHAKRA
Chain of Large T antigen (P03070 whole entry): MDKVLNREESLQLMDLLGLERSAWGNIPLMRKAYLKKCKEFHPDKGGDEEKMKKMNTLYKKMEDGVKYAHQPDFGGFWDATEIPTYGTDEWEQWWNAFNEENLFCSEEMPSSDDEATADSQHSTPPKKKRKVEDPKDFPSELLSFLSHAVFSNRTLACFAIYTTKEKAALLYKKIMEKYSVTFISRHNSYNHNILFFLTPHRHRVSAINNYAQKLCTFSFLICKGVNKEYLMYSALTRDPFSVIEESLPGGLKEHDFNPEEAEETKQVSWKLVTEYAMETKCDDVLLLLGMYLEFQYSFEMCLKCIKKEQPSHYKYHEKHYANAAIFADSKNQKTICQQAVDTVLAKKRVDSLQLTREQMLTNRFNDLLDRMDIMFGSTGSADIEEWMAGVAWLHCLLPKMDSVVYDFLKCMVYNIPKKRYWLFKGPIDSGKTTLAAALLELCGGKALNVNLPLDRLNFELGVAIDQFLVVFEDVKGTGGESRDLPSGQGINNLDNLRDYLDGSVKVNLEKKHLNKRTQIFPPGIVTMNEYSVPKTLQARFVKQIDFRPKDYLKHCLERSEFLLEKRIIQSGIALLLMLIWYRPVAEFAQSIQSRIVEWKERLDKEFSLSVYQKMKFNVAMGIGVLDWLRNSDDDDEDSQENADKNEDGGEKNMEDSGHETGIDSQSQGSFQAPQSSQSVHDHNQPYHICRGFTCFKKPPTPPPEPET

Regarding `CC1SC(C)C(=O)N(CC(=O)Nc2ccc3c(c2)OCO3)C1=O` (configuration not stated), the IC50 (in [1]; in [2]; at Steroidogenic factor 1) was 35.9 µM (inactive) each time.
With `Cc1ccc(C(=O)NCC(=O)NCCCc2ccccc2)cc1`, in test [3], the IC50 is 16.6 µM (active).
Consider `Cc1ccc(S(=O)(=O)N/N=C/c2ccc3nccnc3c2)cc1`, for which the IC50 in [4] is recorded as > 40 µM (not active). Further, at Beta-galactosidase, the EC50 is > 40 µM (inactive).
As to `Cc1ccc2c(C)c(C(=O)N(Cc3cccs3)C3CCS(=O)(=O)C3)oc2c1` (configuration not stated), the EC50 in test [5] was 63.6 µM (inactive); in test [6], > 92.5 µM (inactive); on Mu-type opioid receptor it was > 92.5 µM (inactive); in test [7], 2.66 µM (active).
Consider `COc1ccc(S(=O)(=O)NNc2nc(C)cc(C)n2)cc1[N+](=O)[O-]`, for which the IC50 in [4] is on record as 36.7 µM (not active). For the same molecule, the EC50 on Beta-galactosidase is > 40 µM (inactive).
On to `C=CCc1ccc(O)c(-c2ccc(O)c(CC=C)c2)c1` [HONOKIOL], for which, in test [3], the IC50 was 12 µM (active).
As for `COCCN(C(=O)C1CC(=O)N(Cc2ccccc2)C1)c1nc(-c2ccc([N+](=O)[O-])cc2)cs1` (configuration not stated), the CC50 in test [8] is > 40 µM (active). The EC50 was > 92.5 µM (inactive) in test [5], > 92.5 µM (inactive) in [6] and 22.9 µM (inactive) at Mu-type opioid receptor.
As for `Cc1ccc(NC(=O)COC(=O)C(NS(=O)(=O)c2ccc(Cl)cc2)C(C)O)c(Br)c1` (configuration not stated), the IC50 in [1] is 35.9 µM (inactive); in test [2], 35.9 µM (inactive); on Steroidogenic factor 1, 1.33 µM (active).
`CCN=C(S)NNC(=O)c1ccccn1`: the values for the IC50 (in test [9]; at Nonstructural protein 1) were > 20 µM (inactive) and 1.55 µM (active), respectively.
Consider `Cc1cccc(OCCC(=O)NCC(c2ccccc2)N(C)C)c1` (configuration not stated), for which the EC50 in test [5] was > 92.5 µM (inactive); in [6] it was > 92.5 µM (inactive); on Mu-type opioid receptor it was > 92.5 µM (inactive); in [7], 0.473 µM (active).
`CCCc1cc(=O)oc2c(C)c(OCC(=O)NC3CC(C)(C)NC(C)(C)C3)ccc12`: the IC50 in [1] was 35.9 µM (inactive); in [2] it was 35.9 µM (inactive); on Steroidogenic factor 1, 0.443 µM (active).
In the case of `CC1CC[C+]([N-]NS(=O)(=O)c2ccc([N+](=O)[O-])cc2)CC1`, in test [10], the EC50 is > 99 µM (inactive).
Take `Cc1cc(C)c2sc(NC(=O)c3ccc([N+](=O)[O-])o3)nc2c1`: the figures for the IC50 (in [1]; in test [2]; on Steroidogenic factor 1) were 35.8 µM (inactive), 35.8 µM (inactive) and 1.89 µM (active), respectively. For the same molecule, the EC50 was > 60 µM (not active) in [11] and 0.642 µM (active) in [12].
In the case of `O=C(Cn1nnc2ccccc21)OCC(=O)c1ccc(Cl)c(Cl)c1`, the IC50 in test [4] is 13.3 µM (active). The EC50 on Beta-galactosidase is > 40 µM (inactive).
For the molecule `Cc1nonc1NC(=O)CSc1ccc(-c2ccccc2)nn1`, in test [3], the IC50 is 14.5 µM (active).
Turning to `CC1(C)C(/C=C/C=C/C=C/C=C2\N(CCCCS(=O)(=O)O)c3ccc4ccccc4c3C2(C)C)=[N+](CCCCS(=O)(=O)[O-])c2ccc3ccccc3c21` [INDOCYANINE GREEN], the IC50 on Large T antigen was 2.1 µM (active); in [13], > 47.1 µM (inactive); at Nonstructural protein 1, 2.7 µM (active). Further, the EC50 in [14] is > 53 µM (inactive).
